# From patent US20260297136A1, “PEPTIDES WITH LIPOLYTIC, ANTI-LIPOGENIC, ANTIFIBROTIC AND ANTI-INFLAMMATORY ACTIVITY” (FUNDACIÓ HOSPITAL UNIVERSITARI VALL D'HEBRON - INSTITUT DE …, priority 2023, published 2026)
# Assays:
# [1] = test system: HepG2 cells; experiment: Hepatic lipogenic key enzymes in HepG2 cells in the presence of 30 mM fructose (2 h), Example 7; assay type: cell-based, human; details: 40 μg/ml
# Protocol: FIG. 34. Effects of different peptides and SHBG in reducing hepatic lipogenic key enzymes in the presence of 30 mM fructose. Each bar within each group represents mRNA levels of a key hepatic lipogenic enzyme, from left to right: Acetyl-CoA Carboxylase (ACC), ATP Citrate Lyase (ACLY) and Fatty Acid Synthase (FAS), and a key transcription factor regulating several lipogenic enzymes such as PPARγ (PPARγ).
# Cell culture reagents were from Life Technologies Inc (Invitrogen SA, Barcelona, Spain). HepG2 hepatoblastoma cells (cat. no. HB-8065; ATCC, LGC Standards SLU, Barcelona, Spain) were maintained in Dulbecco's modified Eagle medium (DMEM) supplemented with 10% fetal bovine serum and antibiotics.
# • HepG2 cells were cultured for 5 day in the absence or presence of 30 mM fructose. Cells cultured in 30 mM fructose were daily treated with vehicle, Telmisartan, Semaglutide or EDL6D. • HepG2 cells were cultured for 24 h in the absence or presence of GP6 (40 μg/ml), GP10 (40 μg/ml), GP11 (40 μg/ml), GP12 (40 μg/ml), GP13 (40 μg/ml) or SHBG (20 nM). • HepG2 cells were cultured in the absence or presence of 30 mM fructose and treated for 2 h with vehicle or GP4 (40 μg/ml), GP6 (40 μg/ml), GP7 (40 μg/ml), GP8 (40 μg/ml), GP9 (40 μg/ml), GP10 (40 μg/ml), GP11 (40 μg/ml), GP12 (40 μg/ml), GP13 (40 μg/ml) or SHBG (20 nM).
# Total RNA was extracted from HepG2 and LX-2 cells using TRIzol reagent (Invitrogen SA). Reverse transcription was performed at 42° C. for 50 minutes using […] of total RNA, 200 U of Superscript II, and an oligo-dT primer and reagents provided by Invitrogen. An aliquot of the reverse transcription product was amplified in a […] reaction using SYBRGreen (Invitrogen SA) with appropriate oligonucleotide primer pairs corresponding to human SHBG, ACC, FAS, ACLY, PPARG, and 18S and mouse ACC, FAS, ACLY, PPARG, Col1A1 and 18S. Results were analyzed using the 7000 Sequence Detection System program (Applied Biosystems, Thermo Fisher Scientific, Barcelona, Spain) (Shez-Lopez et al Endocrinology 2017).
# [2] = test system: LX-2 cells; experiment: Fibrosis in LX-2 cells: Col1A1 mRNA induced by TGFβ1, Example 3; assay type: cell-based, human; details: 24 h
# Protocol: FIG. 3 Human hepatic stellate cell line LX-2 was treated with vehicle (DMSO) or TGFβ1 (10 ng/ml) in the absence or presence of GP6 (10 or 40 μg/ml) for 24 h. RNA was extracted and mRNA levels of collagen 1A1 (Col1A1) relative to 18S were measured by RTPCR.
# Cell culture reagents were from Life Technologies Inc (Invitrogen SA, Barcelona, Spain). HepG2 hepatoblastoma cells (cat. no. HB-8065; ATCC, LGC Standards SLU, Barcelona, Spain) were maintained in Dulbecco's modified Eagle medium (DMEM) supplemented with 10% fetal bovine serum and antibiotics. HepG2 cells were cultured for 5 day in the absence or presence of 30 mM fructose. Cells cultured in 30 mM fructose were daily treated with vehicle, Telmisartan, Semaglutide or GP6. LX-2 human hepatic stellate cells (SCC064) were maintained in DMEM supplemented with 2% fetal bovine serum and antibiotics. […]
# Total RNA was extracted from HepG2 and LX-2 cells using TRIzol reagent (Invitrogen SA). […] Results were analyzed using the 7000 Sequence Detection System program (Applied Biosystems, Thermo Fisher Scientific, Barcelona, Spain) (Sex Hormone-Binding Globulin Reduction in Metabolic Disorders May Play a Role in NAFLD Development.Saez-Lopez C, Barbosa-Desongles A, Hernandez C, Dyer R A, Innis S M, Simo R, Selva D M. Endocrinology. 2017 Mar. 1; 158(3):545-559. doi: 10.1210/en.2016-1668).
# [3] = test system: human mature adipocytes; experiment: Lipolysis in human mature adipocytes (glycerol production), Example 3; assay type: cell-based; details: 16 h
# Protocol: FIG. 4 Mature human subcutaneous adipocytes were treated with vehicle (DMSO), 1 μM of Isoproterenol, Semaglutide (10 nM) or GP6 (25, 50 or 100 μg/ml) for 16 h. Glycerol concentration was assessed using a Lipolysis Assay Kit (Tebu-bio).
# Human preadipocytes and cell culture reagents were from purchased from Tebu-Bio (Tebu-bio, Barcelona, Spain) and differentiation protocol was done following the manufacturer's instructions. Human adipocytes were maintained in a humidified incubator with 5% CO2 at 37° C. (Sex hormone-binding globulin overexpression protects against high-fat diet-induced obesity in transgenic male mice. Saez-Lopez C, Villena J A, Simo R, Selva D M. J Nutr Biochem. 2020 November; 85:108480. doi: 10.1016/j.jnutbio.2020.108480).
# Lipolysis assays were performed using a Lipolysis Kit (Tebu-Bio) following the manufacturer's instructions as previously described by Saez-Lopez and collaborators (Sex hormone-binding globulin overexpression protects against high-fat diet-induced obesity in transgenic male mice. Saez-Lopez C, Villena J A, Simo R, Selva D M. J Nutr Biochem. 2020 November; 85:108480. doi: 10.1016/j.jnutbio.2020.108480.)
smiles,measurement,setting,value
CC[C@@H](C)[C@@H](NC(=O)[C@H](NC(=O)CNC(=O)[C@@H](CCC(=O)O)NC(=O)[C@H]1CCCN1C(=O)[C@@H](CC(=O)O)NC(=O)[C@@H](Cc1c[nH]c2ccccc12)NC(=O)[C@H](NC(=O)[C@@H](CCCNC(=N)N)NC(=O)[C@H](NC(=O)[C@@H](CCC(=O)O)NC(=O)[C@@H](Cc1ccccc1)NC(=O)[C@@H](CO)NC(=O)[C@@H](CO)NC(=O)[C@@H](CO)NC(=O)[C@H](NC(=O)[C@@H](CCCCN)NC(=O)[C@H](N)[C@H](C)O)[C@H](C)O)C(C)C)[C@H](C)O)C(C)C)C(=O)N[C@H](Cc1ccccc1)C(=O)N[C@H](Cc1ccc(O)cc1)C(=O)O [GP6],fructose-induced expression of ACC,[1],able to reduce
same,fructose-induced expression of ACLY,[1],able to reduce
same,fructose-induced expression of FAS,[1],able to reduce
same,fructose-induced expression of PPARγ,[1],able to reduce
same,reduction of mRNA levels of collagen 1A1 induced by TGFβ1,[2]; 10 μg/ml,28%
same,reduction of mRNA levels of collagen 1A1 induced by TGFβ1,[2]; 40 μg/ml,45%
same,increase of glycerol production (lipolysis),[3]; 25 μg/ml,200%
same,increase of glycerol production (lipolysis),[3]; 50 μg/ml,270%
same,increase of glycerol production (lipolysis),[3]; 100 μg/ml,315%
same,lipolysis induction compared with Semaglutide,"[3]; GP6 25, 50 or 100 μg/ml versus Semaglutide 10 nM",performing more efficiently than Semaglutide
